Reference: ChEMBL document CHEMBL1150963, “Five new polyacetylenes from a sponge of the genus petrosia” (1998)

How the values were obtained:
[1] = system: K562; test: Cytotoxicity against human K562 cells; type: functional; details: read-out: LC50 (the source's name)
[2] = molecular target: Phospholipase A2 (Homo sapiens) (UniProt P04054); test: Inhibition of PLA2 at 50 ug/ml
Sequence of Phospholipase A2 (Homo sapiens) (P04054 23-148 limits assumed): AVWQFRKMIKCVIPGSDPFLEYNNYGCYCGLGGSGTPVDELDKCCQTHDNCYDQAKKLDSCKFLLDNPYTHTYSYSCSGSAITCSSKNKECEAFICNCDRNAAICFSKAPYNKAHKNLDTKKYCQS

Row | Structure (SMILES) | CC50 [1] [µM] | inhibition [2] [%]
1 | C#C/C=C\CCCCCCCCCCCCCCC(O)/C=C/CCC/C=C\CCCCC#C[C@H](O)C#CCCCCCC/C=C/[C@@H](O)C#C (some centres undefined) [PETROCORTYNE H] | 11 | 32
2 | C#C/C=C\CCCCCCCCCCCCCC/C=C\CCCC/C=C\CCCCC#C[C@H](O)C#CCCCCCCCC[C@H](O)C#C [PETROCORTYNE D] | 45 | –
3 | C#C/C=C\CCCCCCCCCCCCCC/C=C\CCC/C=C/C(O)CCCCC#C[C@H](O)C#CCCCCCC/C=C/[C@@H](O)C#C (some centres undefined) [PETROCORTYNE E] | 7 | 48
4 | C#C/C=C\CCCCCCCCCCCCCC/C=C\CCCCC(O)/C=C/CCCC#C[C@H](O)C#CCCCCCC/C=C/[C@@H](O)C#C (some centres undefined) [PETROCORTYNE F] | 21 | 25
5 | C#C/C=C\CCCCCCCCCCCCC/C=C/C(O)CCCC/C=C\CCCCC#C[C@H](O)C#CCCCCCC/C=C/[C@@H](O)C#C (some centres undefined) [PETROCORTYNE G] | 30 | 36
